The text below walks through data of publication PMC12670405, “Second-Generation AURKA-Targeting PROTACs: Structural Optimization toward in Vivo Degradation in Neuroblastoma” (Journal of Medicinal Chemistry, 2025).

Each structure is given as a SMILES string. Read-outs that look alike come from different tables or passages of the source.

The target of one data set is T1, AURKA (Homo sapiens, UniProt O14965).
T1 sequence (O14965 1-403): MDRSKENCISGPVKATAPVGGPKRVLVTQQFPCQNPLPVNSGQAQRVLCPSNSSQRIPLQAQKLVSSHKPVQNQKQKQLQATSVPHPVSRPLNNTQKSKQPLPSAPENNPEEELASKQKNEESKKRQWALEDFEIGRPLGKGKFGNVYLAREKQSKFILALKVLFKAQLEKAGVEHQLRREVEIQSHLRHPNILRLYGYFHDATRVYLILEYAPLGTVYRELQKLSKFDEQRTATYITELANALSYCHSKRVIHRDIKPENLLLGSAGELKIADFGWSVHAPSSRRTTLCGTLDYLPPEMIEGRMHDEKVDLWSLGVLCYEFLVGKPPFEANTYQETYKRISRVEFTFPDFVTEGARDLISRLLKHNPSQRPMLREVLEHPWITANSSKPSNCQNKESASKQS
The data set is described as follows: AURKA degradation, Simple Western.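 As to AURKA Degradation 24h @1000nM: measured in NGP neuroblastoma cells.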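 As to AURKA Degradation 24h @100nM: measured in NGP neuroblastoma cells.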 It is filed as cell-based. Also on record: Representative Western blot showing levels of endogenous proteins MDR1, MYCN, AURKA, and CRBN in untreated cell lines; endogenous in cells; host or cells: NGP, IMR-32, SJNB-8, SK-N-BE(2)-C, SK-N-SH, SK-N-AS, SJNB-1, RPE, HEK293T. As to conditions: for pDC50: AURKA degradation; for DC50: read-out: AURKA DC50. Here is the method: Cells were seeded in T-25 flasks at different densities ranging from 1 to 2 million cells per flask and allowed to adhere for 1–2 days. In experiments involving compound treatment, this was done by medium replacement containing the compound(s) of interest in their corresponding concentrations. In competition binding experiments, cells were first pretreated with an excess of MK-5108, thalidomide or MG-132 for 1 h by shaking gently at room temperature prior to addition of SK4454 or SK5527. All samples were normalized to contain the same percentage of DMSO as the negative DMSO controls. Cells were harvested on ice at their respective time points by scraping, washed with ice-cold PBS to collect remaining cells, and centrifuged (2500 rpm, 4 °C). A second washing and centrifugation step was performed prior to collection of the final cell pellets which were then snap-frozen in liquid nitrogen and kept frozen at −80 °C until further processing. Lysis of cell pellets occurred in cold RIPA buffer (0.5% w/v Sodium Deoxycholate, 150 mM NaCl, 50 mM TrisHCl pH 7.5, 0.1% w/v SDS, 1% w/v NP-40) supplemented with protease and phosphatase inhibitors (Roche, #11836145001, #04906845001) by rotating gently at 4 °C for 1h, followed by a centrifugation step for 10 min (10,000 rpm, 4 °C). The supernatant was collected and concentrations of the obtained protein lysates were measured using the Pierce BCA Protein Assay Kit (Thermo Fisher Scientific, #23227).
Simple Western analyses were performed with the Wes instrument (Bio-Techne) using the 12–230 kDa Wes Separation module and the EZ standard pack reagent 1 (Biotechne, #SM-W001, #PS-ST01EZ-8) following the manufacturer’s protocol. Protein lysates were loaded at 0.8 μg/μL under denaturing conditions (0.2 μg/μL for MYCN detection). Chemiluminescence peaks were generated by the Compass Software (Bio-Techne) and the area under the peaks calculated using the Gaussian fit method. Per lane, quantified data were always normalized to that of the loading control (Vinculin) prior to calculating fold changes relative to the negative DMSO control. Mean fold changes are calculated from 3 individual experiments. A list of the primary and secondary antibodies used can be found in the Supporting Information (Supplementary Table S7).
Graphs were generated using GraphPad Prism Software (version 10.1.2) or RStudio (R-4.3.2). All dose–response curves were computed on GraphPad Prism using the Variable Slope (four parameters) equation. Absolute half-maximal degradation (DC50), growth inhibitory (GI50) and enzymatic inhibitory (IC50) concentrations, as well as inhibition constants (Ki) were derived from dose–response curves via interpolation. Statistical tests were performed on GraphPad Prism and detailed in the figure legends. Unless otherwise stated, “n” in the figure legends indicates the number of independent experiments conducted at different times.

Data set [1] in a line: Metabolic stability in mouse liver microsomes (MLM). Conditions: CD-1. It is filed as in vitro ADME, CD-1 mouse. Here is the method:
(§1) Plasma and metabolic stability tests were performed by Eurofins Discovery. For the plasma stability assay, test compounds were incubated in CD-1 mouse plasma for 0, 0.5, 1, 1.5, and 2 h at 37 °C at a concentration of 1 μM. For the metabolic stability assay, test compounds were incubated at 37 °C in either (1) CD-1 mouse liver microsomes (MLM) (0.1 mg/mL) at a concentration of 0.1 μM for 0, 15, 30, 45, and 60 min or (2) CD-1 mouse hepatocytes (MH) (0.7 million viable cells/mL) at a concentration of 1 μM for 0, 0.5, 1, 1.5, and 2 h. At the respective time points, acetonitrile was added to the incubation mixture followed by centrifugation. Samples were analyzed by HPLC-MS/MS and peak areas were recorded for each analyte. Compound stability, expressed as the percentage of parent compound remaining, was calculated by comparing the peak area of the compound at each time point relative to that of the 0h time point. Percentage compound remaining is plotted as a function of time as a logarithmic curve. Half-life (t 1/2) is estimated from the slope of the initial linear range of the curve, assuming first-order kinetics. […] Both plasma and metabolic assay experiments were performed once with 2 replicate samples each.
A general note: Liver microsomes are a subcellular fraction often used to study metabolism.

For a further data set, the system named is NGP. In words: IncuCyte live-cell imaging, antiproliferative effect. It counts as cell-based. Conditions: Homo sapiens, 72 h. From the text: Human neuroblastoma cell lines NGP, IMR-32, SJNB-8, SK-N-BE(2)-C, SJNB-1, SK-N-SH and SK-N-AS, as well as benign immortalized cell lines RPE and HEK293T were either bought commercially or obtained through research laboratories. […] Screening for mycoplasma contamination occurred routinely on the cells. Human neuroblastoma cell lines SH-SY5Y_shABCB1 & SH-SY5Y_shNTC were generated by transduction with pLKO.1-ABCB1_TRCN0000059683 shRNA (Sigma MISSION SHCLND) or pLKO.1-puro NT shRNA (Sigma MISSION SHC002) vectors respectively (Supplementary Table S6), packaged using Lenti-X293T (Clontech). Transduced cells were selected with 2 μg/mL puromycin. These cells were cultured in DMEM 4.5 g/L D-Glucose, L-Glutamine and 110 mg/L Sodium Pyruvate (Gibco, #11995065) supplemented with 10% fetal bovine serum, 1× Antibiotic-Antimycotic solution (Sigma-Aldrich, #A5955) and 1× MEM nonessential amino acids (Sigma-Aldrich, #M7145). Incubation of all cells occurred at 37 °C and 5% CO2.
Neuroblastoma cells were seeded in 384-well plates at different densities ranging from 1200 to 5000 cells/well and allowed to adhere overnight. RPE and HEK293T were seeded at 200 and 600 cells/well, respectively. Compound treatment was performed using the D300e Digital Dispenser (Tecan) in duplicate or triplicate and cell confluency was monitored over time using the IncuCyte Live-cell imaging system (Sartorius). […] Mean normalized confluences were calculated from 3 individual experiments.
All dose–response curves were computed on GraphPad Prism using the Variable Slope (four parameters) equation. Absolute half-maximal degradation (DC50), growth inhibitory (GI50) and enzymatic inhibitory (IC50) concentrations, as well as inhibition constants (Ki) were derived from dose–response curves via interpolation. Statistical tests were performed on GraphPad Prism and detailed in the figure legends. Unless otherwise stated, “n” in the figure legends indicates the number of independent experiments conducted at different times.

A further data set in a line: Plasma stability assay. It counts as in vitro ADME, CD-1 mouse. Conditions: for half-life at 1 μM: read-out: plasma t1/2. Here is the method: as §1

By microsomal CLint is commonly meant a measure of how fast metabolising enzymes remove a compound, apart from limits set by blood flow. A lower microsomal CLint goes with greater metabolic stability. Consider `O=C1CCC(N2C(=O)c3cccc(N4CCN(CCOCCOCCNC(=O)[C@]5(Cc6cccc(Nc7nccs7)n6)CC[C@@H](Oc6cccc(Cl)c6F)CC5)CC4)c3C2=O)C(=O)N1` (stereo partly shown) [PROTAC 1], for which, on AURKA, the “AURKA Degradation 24h @100nM” value is 72 and the “AURKA Degradation 24h @1000nM” value was found to be 66. In addition, in data set [1], the microsomal CLint at 0.1 μM was 1480 µL/min/mg. For the same compound, the GI50 in the data set with NGP (read-out: GI50 72h, 72h) was found to be 63 nM. Also, the GI50 with NGP (read-out: pGI50 (converted)) is 63.1 nM. The half-life at 1 μM in “Plasma stability assay” (CD-1, mouse, plasma) is greater than 2 h.
The term Dmax denotes the greatest extent of degradation seen. Read a low Dmax as a partial loss of target. What is called DC50 is the concentration giving 50% degradation. Regarding `O=C1CCC(N2C(=O)c3cccc(OCCOCCOCCN4CCN(C(=O)[C@]5(Cc6cccc(Nc7nccs7)n6)CC[C@@H](Oc6cccc(Cl)c6F)CC5)CC4)c3C2=O)C(=O)N1` (stereo partly shown) [PROTAC 3], on AURKA, the “AURKA Degradation 24h @100nM” value turned out to be 80, the “AURKA Degradation 24h @1000nM” value amounted to 77, the pDC50 is 8,06 and the DC50 came out at 8.7 nM. On AURKA (NGP, 24 h treatment), this compound gave a Dmax of 81%. In data set [1], this compound gave an intrinsic clearance (microsomal CLint) at 0.1 μM of 456 µL/min/mg. In the data set on NGP (read-out: GI50 72h, 72h), the GI50 is 42 nM. For the same compound, the GI50 with NGP (read-out: pGI50 (converted)) was 41.7 nM. Moreover, the half-life at 1 μM in “Plasma stability assay” (CD-1 mouse plasma, 1 μM, 37 °C) came to 1.32 h.
For `O=C1CCC(N2C(=O)c3ccc(N4CCN(CCNC(=O)[C@]5(Cc6cccc(Nc7nccs7)n6)CC[C@@H](Oc6cccc(Cl)c6F)CC5)CC4)cc3C2=O)C(=O)N1` (stereo partly shown) [PROTAC 4], at AURKA, the “AURKA Degradation 24h @100nM” value was 85, the “AURKA Degradation 24h @1000nM” value was 93, the pDC50 is on record as 8,32 and the DC50 was 4.8 nM. In addition, at AURKA (NGP, 24 h treatment), the Dmax stood at 97% and the DC50 came out at 5 nM. Besides, the microsomal CLint at 0.1 μM in data set [1] turned out to be 656 µL/min/mg. Also, in the data set with NGP (read-out: GI50 72h, 72h), the GI50 was determined as 44 nM. For the same compound, the GI50 in the data set with NGP (read-out: pGI50 (converted)) is 44.7 nM. Besides, in “Plasma stability assay” (CD-1 mouse plasma, 1 μM, 37 °C), the half-life at 1 μM was greater than 2 h. In addition, in “Plasma stability assay” (plasma), the “plasma t1/2” value is greater than 2 h.
Take `O=C1CCN(c2ccc(N3CCN(C4CCN(C(=O)[C@]5(Cc6cccc(Nc7nccs7)n6)CC[C@@H](Oc6cccc(Cl)c6F)CC5)C4)CC3)nc2)C(=O)N1` (stereo partly shown) [PROTAC 26]: on AURKA, the “AURKA Degradation 24h @100nM” value amounted to 71, the “AURKA Degradation 24h @1000nM” value came to 71, the pDC50 is given as 8,3 and the DC50 worked out at 5 nM. In addition, in the data set on NGP (read-out: GI50 72h, 72h), the GI50 was found to be 45 nM. Further, in the data set with NGP (read-out: pGI50 (converted)), the GI50 is 44.7 nM.
Turning to `Cc1cc(Nc2ccc(F)c(CC3(C(=O)N4CCC(CN5CCC(c6ccc(CN7CCC(=O)NC7=O)cn6)CC5)CC4)CCN(Cc4cccc(Cl)c4F)CC3)n2)n[nH]1` [PROTAC 30], on AURKA, the “AURKA Degradation 24h @100nM” value was 42 and the “AURKA Degradation 24h @1000nM” value came out at 59. Further, at AURKA (NGP, 24 h treatment), the “AURKA degradation activity (in words)” value is “weak degradation potency” and the Dmax was 59%. Further, in the data set on NGP (read-out: GI50 72h, 72h), the GI50 turned out to be 158 nM. Also, the GI50 in the data set with NGP (read-out: pGI50 (converted)) is 158 nM.
For `Cc1cc(Nc2ccc(F)c(CC3(C(=O)N4CC(CN5CCN(c6ccc(N7CCC(=O)NC7=O)cn6)CC5)C4)CCN(Cc4cccc(Cl)c4F)CC3)n2)n[nH]1` [PROTAC 31], on AURKA, the “AURKA Degradation 24h @100nM” value is reported as 80 and the “AURKA Degradation 24h @1000nM” value was 89. For the same compound, in the data set on NGP (read-out: GI50 72h, 72h), the GI50 amounted to 98 nM. In the data set on NGP (read-out: pGI50 (converted)), the GI50 is 97.7 nM.
For `Cc1cc(Nc2ccc(F)c(CC3(C(=O)N4CCC(F)(C(=O)N5CCN(c6ccc(N7CCC(=O)NC7=O)cn6)CC5)CC4)CCN(Cc4cccc(Cl)c4F)CC3)n2)n[nH]1` [PROTAC 34], in that order: 83, 91, 84 nM and 83.2 nM.
On the same counts, the results for `Cc1cc(Nc2ccc(F)c(CC3(C(=O)N4CC(N5CCC(c6ccc(N7CCC(=O)NC7=O)cn6)CC5)C4)CCN(Cc4cccc(Cl)c4F)CC3)n2)n[nH]1` [PROTAC 35] are 62, 69, 332 nM and 331 nM.
As to `Cc1cc(Nc2ccc(F)c(CC3(C(=O)N4CCC(CN5CCC(c6ccc(N7CCC(=O)NC7=O)cn6)CC5)CC4)CCN(Cc4cccc(Cl)c4F)CC3)n2)n[nH]1` [PROTAC 36], on AURKA, the “AURKA Degradation 24h @100nM” value is 58 and the “AURKA Degradation 24h @1000nM” value turned out to be 78. Moreover, the GI50 in the data set on NGP (read-out: GI50 72h, 72h) amounted to 60 nM. The GI50 in the data set with NGP (read-out: pGI50 (converted)) was 60.3 nM.
On the same counts, the results for `Cc1cc(Nc2ccc(F)c(CC3(C(=O)N4CCC(F)(C(=O)N5CCC(c6ccc(N7CCC(=O)NC7=O)cn6)CC5)CC4)CCN(Cc4cccc(Cl)c4F)CC3)n2)n[nH]1` [PROTAC 38] are 82, 90, 146 nM and 145 nM.
